Measured values published in patent US7595401B2, “Therapeutic compounds and their use in cancer” (Myriad Pharmaceuticals, Inc., priority 2006, dated 2009).

What follows are compounds tested on purified human Hsp90 (assay: Binding Assay: fluorescence polarization with BODIPY-labeled geldanamycin). Conditions: 5 μM compound, BODIPY-GM 10 nM, Hsp90 30 nM.
Procedure, shortened: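 Compounds in 2% DMSO final compete with 10 nM BODIPY-GM for 30 nM purified human Hsp90, incubated overnight at room temperature in pH 7.3 HEPES buffer containing Na2MoO4 and DTT. Polarization (mP, ex/em 485/530) normalized to DMSO gives percent inhibition; autofluorescence-confounded data excluded.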

Row | SMILES | % Inhibition at 5 μM Compound Concentration [%]
1 | Nc1ncn(CCC2CCCN2C(=O)OCc2ccccc2)c2nc(Sc3cc4c(cc3Br)OCO4)nc1-2 (centres unmarked) [Example 421, Benzyl 2-(2-{6-amino-8-[(6-bromo-1,3-benzodioxol-5-yl)thio]-3H-purin-3-yl}ethyl)pyrrolidine-1-carboxylate] | 28
2 | Nc1ncn(CCC2=CCN(Cc3ccccc3)CC2)c2nc(Sc3cc4c(cc3Br)OCO4)nc1-2 [Example 425, 3-[2-(1-Benzyl-1,2,3,6-tetrahydropyridin-4-yl)ethyl]-8-[(6-bromo-1,3-benzodioxol-5-yl)thio]-3H-purin-6-amine] | 6
3 | CN1C2CCC1CC(CCn1cnc(N)c3nc(Sc4cc5c(cc4Br)OCO5)nc1-3)C2 (stereo not drawn) [Example 427, 8-[(6-Bromo-1,3-benzodioxol-5-yl)thio]-3-{2-[(3-endo)-8-methyl-8-azabicyclo[3.2.1]oct-3-yl]ethyl}-3H-purin-6-amine] | 32
4 | CCNC(=O)N1CCCC(CCn2cnc(N)c3nc(Sc4cc5c(cc4Br)OCO5)nc2-3)C1 (centres unmarked) [Example 440, 3-(2-{6-Amino-8-[(6-bromo-1,3-benzodioxol-5-yl)thio]-3H-purin-3-yl}ethyl)-N-ethylpiperidine-1-carboxamide] | 60
5 | CC(C)NC(=O)N1CCCC(CCn2cnc(N)c3nc(Sc4cc5c(cc4Br)OCO5)nc2-3)C1 (centres unmarked) [Example 441, 3-(2-{6-Amino-8-[(6-bromo-1,3-benzodioxol-5-yl)thio]-3H-purin-3-yl}ethyl)-N-isopropylpiperidine-1-carboxamide] | 45
6 | CC(C)(C)NC(=O)N1CCCC(CCn2cnc(N)c3nc(Sc4cc5c(cc4Br)OCO5)nc2-3)C1 (centres unmarked) [Example 442, 3-(2-{6-Amino-8-[(6-bromo-1,3-benzodioxol-5-yl)thio]-3H-purin-3-yl}ethyl)-N-(tert-butyl)piperidine-1-carboxamide] | 4
7 | CC(C)CN1CCCCC1CCn1cnc(N)c2nc(Sc3cc4c(cc3Br)OCO4)nc1-2 (centres unmarked) [Example 448, 8-[(6-Bromo-1,3-benzodioxol-5-yl)thio]-3-[2-(1-isobutylpiperidin-2-yl)ethyl]-3H-purin-6-amine] | 45
8 | CC(C)(C)C(=O)N1CCCC(CCn2cnc(N)c3nc(Sc4cc5c(cc4Br)OCO5)nc2-3)C1 (centres unmarked) [Example 450, 8-[(6-Bromo-1,3-benzodioxol-5-yl)thio]-3-{2-[1-(2,2-dimethylpropanoyl)piperidin-3-yl]ethyl}-3H-purin-6-amine] | 57
9 | CC(C)(C)C(=O)N1CCC(CCn2cnc(N)c3nc(Sc4cc5c(cc4Br)OCO5)nc2-3)CC1 [Example 452, 8-[(6-Bromo-1,3-benzodioxol-5-yl)thio]-3-{2-[1-(2,2-dimethylpropanoyl)piperidin-4-yl]ethyl}-3H-purin-6-amine] | 21
10 | CC(C)(C)OC(=O)N1CC(CCn2cnc(N)c3nc(Sc4cc5c(cc4Br)OCO5)nc2-3)C1 [Example 459, tert-Butyl 3-(2-{6-amino-8-[(6-bromo-1,3-benzodioxol-5-yl)thio]-3H-purin-3-yl}ethyl)azetidine-1-carboxylate] | 18

Further lines, results first:

Row | % Inhibition at 5 μM Compound Concentration [%] | SMILES
11 | 24 | CC(C)NC(=O)N1CCC(CCn2cnc(N)c3nc(Sc4cc5c(cc4Br)OCO5)nc2-3)CC1 [Example 439, 4-(2-{6-Amino-8-[(6-bromo-1,3-benzodioxol-5-yl)thio]-3H-purin-3-yl}ethyl)-N-isopropylpiperidine-1-carboxamide]
12 | 36 | CCOC(=O)CNC(=O)N1CCC(CCn2cnc(N)c3nc(Sc4cc5c(cc4Br)OCO5)nc2-3)CC1 [Example 443, Ethyl N-{[4-(2-{6-amino-8-[(6-bromo-1,3-benzodioxol-5-yl)thio]-3H-purin-3-yl}ethyl)piperidin-1-yl]carbonyl}glycinate]
13 | 4 | CC(C)N1CCCCC1CCn1cnc(N)c2nc(Sc3cc4c(cc3Br)OCO4)nc1-2 (centres unmarked) [Example 446, 8-[(6-Bromo-1,3-benzodioxol-5-yl)thio]-3-[2-(1-isopropylpiperidin-2-yl)ethyl]-3H-purin-6-amine]
14 | 14 | CC(C)(C)OC(=O)N1C=C(CCn2cnc(N)c3nc(Sc4cc5c(cc4Br)OCO5)nc2-3)CCC1 [Example 463, tert-Butyl 5-(2-{6-amino-8-[(6-bromo-1,3-benzodioxol-5-yl)thio]-3H-purin-3-yl}ethyl)-3,4-dihydropyridine-1(2 H)-carboxylate]

Same assay, conditions: BODIPY-GM 10 nM, Hsp90 30 nM

Row | SMILES | IC50 [nM]
15 | CN1[C@@H]2CC[C@H]1C[C@@H](CCn1c(Sc3cc4c(cc3Br)OCO4)nc3c(N)ncnc31)C2 [Example 426, 8-[(6-Bromo-1,3-benzodioxol-5-yl)thio]-9-{2-[(3-endo)-8-methyl-8-azabicyclo[3.2.1]oct-3-yl]ethyl}-9H-purin-6-amine] | 150
16 | CC(C)(C)NC(=O)N1CCC(CCn2c(Sc3cc4c(cc3Br)OCO4)nc3c(N)ncnc32)CC1 [Example 433, 4-(2-{6-Amino-8-[(6-bromo-1,3-benzodioxol-5-yl)thio]-9H-purin-9-yl}ethyl)-N-(tert-butyl)piperidine-1-carboxamide] | 125
17 | CCNC(=O)N1CCCC(CCn2c(Sc3cc4c(cc3Br)OCO4)nc3c(N)ncnc32)C1 (centres unmarked) [Example 435, 3-(2-{6-Amino-8-[(6-bromo-1,3-benzodioxol-5-yl)thio]-9H-purin-9-yl}ethyl)-N-ethylpiperidine-1-carboxamide] | 195
18 | CC(C)N1CCCCC1CCn1c(Sc2cc3c(cc2Br)OCO3)nc2c(N)ncnc21 (centres unmarked) [Example 445, 8-[(6-Bromo-1,3-benzodioxol-5-yl)thio]-9-[2-(1-isopropylpiperidin-2-yl)ethyl]-9H-purin-6-amine] | 305
19 | CC(C)CN1CCCCC1CCn1c(Sc2cc3c(cc2Br)OCO3)nc2c(N)ncnc21 (centres unmarked) [Example 447, 8-[(6-Bromo-1,3-benzodioxol-5-yl)thio]-9-[2-(1-isobutylpiperidin-2-yl)ethyl]-9H-purin-6-amine] | 210
20 | CC(C)CN1CCC(CCn2c(Sc3cc4c(cc3Br)OCO4)nc3c(N)ncnc32)CC1 [Example 453, 8-[(6-Bromo-1,3-benzodioxol-5-yl)thio]-9-[2-(1-isobutylpiperidin-4-yl)ethyl]-9H-purin-6-amine] | 700
21 | CC(C)(C)OC(=O)N[C@H]1CC[C@H](CCn2c(Sc3cc4c(cc3Br)OCO4)nc3c(N)ncnc32)CC1 [Example 455, tert-Butyl [trans-4-(2-{6-amino-8-[(6-bromo-1,3-benzodioxol-5-yl)thio]-9H-purin-9-yl}ethyl)cyclohexyl]carbamate] | 60
22 | CC(C)(C)OC(=O)N1CC(CCn2c(Sc3cc4c(cc3Br)OCO4)nc3c(N)ncnc32)C1 [Example 458, tert-Butyl 3-(2-{6-amino-8-[(6-bromo-1,3-benzodioxol-5-yl)thio]-9H-purin-9-yl}ethyl)azetidine-1-carboxylate] | 380
23 | CC(C)(C)OC(=O)N1C=C(CCn2c(Sc3cc4c(cc3Br)OCO4)nc3c(N)ncnc32)CCC1 [Example 462, tert-Butyl 5-(2-{6-amino-8-[(6-bromo-1,3-benzodioxol-5-yl)thio]-9H-purin-9-yl}ethyl)-3,4-dihydropyridine-1(2 H)-carboxylate] | 7900

The next lines start with the values.

Row | IC50 [nM] | SMILES
24 | 130 | CCNC(=O)N1CCC(CCn2c(Sc3cc4c(cc3Br)OCO4)nc3c(N)ncnc32)CC1 [Example 431, 4-(2-{6-Amino-8-[(6-bromo-1,3-benzodioxol-5-yl)thio]-9H-purin-9-yl}ethyl)-N-ethylpiperidine-1-carboxamide]
25 | 65 | CC(C)NC(=O)N1CCC(CCn2c(Sc3cc4c(cc3Br)OCO4)nc3c(N)ncnc32)CC1 [Example 432, 4-(2-{6-Amino-8-[(6-bromo-1,3-benzodioxol-5-yl)thio]-9H-purin-9-yl}ethyl)-N-isopropylpiperidine-1-carboxamide]
26 | 37 | CCOC(=O)CNC(=O)N1CCC(CCn2c(Sc3cc4c(cc3Br)OCO4)nc3c(N)ncnc32)CC1 [Example 434, Ethyl N-{[4-(2-{6-amino-8-[(6-bromo-1,3-benzodioxol-5-yl)thio]-9H-purin-9-yl}ethyl)piperidin-1-yl]carbonyl}glycinate]
27 | 390 | CC(C)NC(=O)N1CCCC(CCn2c(Sc3cc4c(cc3Br)OCO4)nc3c(N)ncnc32)C1 (centres unmarked) [Example 436, 3-(2-{6-Amino-8-[(6-bromo-1,3-benzodioxol-5-yl)thio]-9H-purin-9-yl}ethyl)-N-isopropylpiperidine-1-carboxamide]
28 | 390 | CC(C)(C)NC(=O)N1CCCC(CCn2c(Sc3cc4c(cc3Br)OCO4)nc3c(N)ncnc32)C1 (centres unmarked) [Example 437, 3-(2-{6-Amino-8-[(6-bromo-1,3-benzodioxol-5-yl)thio]-9H-purin-9-yl}ethyl)-N-(tert-butyl)piperidine-1-carboxamide]
29 | 1100 | COc1ccc(OC)c(Sc2nc3c(N)ncnc3n2CCN2CCN(C(=O)C(C)(C)C)CC2)c1 [Example 444, 8-[(2,5-Dimethoxyphenyl)thio]-9-{2-[4-(2,2-dimethylpropanoyl)piperazin-1-yl]ethyl}-9H-purin-6-amine]
30 | 200 | CC(C)(C)C(=O)N1CCCC(CCn2c(Sc3cc4c(cc3Br)OCO4)nc3c(N)ncnc32)C1 (centres unmarked) [Example 449, 8-[(6-Bromo-1,3-benzodioxol-5-yl)thio]-9-{2-[1-(2,2-dimethylpropanoyl)piperidin-3-yl]ethyl}-9H-purin-6-amine]
31 | 195 | CC(C)(C)C(=O)N1CCC(CCn2c(Sc3cc4c(cc3Br)OCO4)nc3c(N)ncnc32)CC1 [Example 451, 8-[(6-Bromo-1,3-benzodioxol-5-yl)thio]-9-{2-[1-(2,2-dimethylpropanoyl)piperidin-4-yl]ethyl}-9H-purin-6-amine]
32 | 305 | CC(C)(C)CC(=O)N1CCCC(CCn2c(Sc3cc4c(cc3Br)OCO4)nc3c(N)ncnc32)C1 (centres unmarked) [Example 454, 8-[(6-Bromo-1,3-benzodioxol-5-yl)thio]-9-{2-[1-(3,3-dimethylbutanoyl)piperidin-3-yl]ethyl}-9H-purin-6-amine]
